Two compounds from ChEMBL document CHEMBL5154820 (Eur J Med Chem, 2022) can be followed below.

Molecules are shown by their SMILES.

Data set [1] deals with HeLa. Description: Induction of cell cycle arrest in human HeLa cells assessed as 2N cells at 3 nM measured after 24 hrs by propidium iodide staining based flow cytometric analysis analysis ( Rvb = 41.7%). It counts as functional.
Data set [2] deals with HeLa. Briefly: Induction of cell cycle arrest in human HeLa cells assessed as accumulation of cells at G2/M phase at 1.5 nM after 24 hrs by propidium iodide staining based flow cytometric analysis (reference value: 17.1%). The class given is functional.
Data set [3] has as its system HeLa. Briefly: Induction of apoptosis in human HeLa cells assessed as viable cells at 1.5 nM measured after 24 hrs by Annexin V-FITC/7-AAD staining based flow cytometric analysis (reference value: 75.5%). It counts as functional. The note with it: read-out: Activity.
The subject of data set [4] is HeLa. Briefly: Induction of apoptosis in human HeLa cells assessed as late apoptotic cells at 1.5 nM measured after 24 hrs by Annexin V-FITC/7-AAD staining based flow cytometric analysis (reference value: 5.22%). It counts as functional.
Data set [5] relates to HeLa. Description: Antimigratory activity against human HeLa cells at 1.5 nM measured after 24 hrs by scratch wound healing based fluorescence inverted microscopic analysis. It counts as functional.
The target of data set [6] is Tubulin (Sus scrofa) (UniProt P02554+P02550). Briefly: Inhibition of pig brain tubulin polymerization at 3 uM by spectrophotometer analysis relative to control. The note with it: Sus scrofa domesticus. Set-up: scale not given: the % may be the effect or the level left.
Chain of Tubulin (Sus scrofa) (P02550 whole entry, looked up): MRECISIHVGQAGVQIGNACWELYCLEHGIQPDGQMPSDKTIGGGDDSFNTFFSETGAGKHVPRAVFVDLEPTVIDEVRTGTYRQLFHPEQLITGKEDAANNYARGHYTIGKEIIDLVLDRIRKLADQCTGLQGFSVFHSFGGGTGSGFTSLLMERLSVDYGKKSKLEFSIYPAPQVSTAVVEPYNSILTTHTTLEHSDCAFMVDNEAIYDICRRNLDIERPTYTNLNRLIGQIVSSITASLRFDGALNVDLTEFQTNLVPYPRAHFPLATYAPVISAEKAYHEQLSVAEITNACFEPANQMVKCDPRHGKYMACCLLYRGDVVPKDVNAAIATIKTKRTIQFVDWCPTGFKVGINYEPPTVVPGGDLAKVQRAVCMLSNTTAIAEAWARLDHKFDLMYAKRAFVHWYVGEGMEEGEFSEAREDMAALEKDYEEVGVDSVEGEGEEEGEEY
Chain of Tubulin (Sus scrofa) (P02554 whole entry, looked up): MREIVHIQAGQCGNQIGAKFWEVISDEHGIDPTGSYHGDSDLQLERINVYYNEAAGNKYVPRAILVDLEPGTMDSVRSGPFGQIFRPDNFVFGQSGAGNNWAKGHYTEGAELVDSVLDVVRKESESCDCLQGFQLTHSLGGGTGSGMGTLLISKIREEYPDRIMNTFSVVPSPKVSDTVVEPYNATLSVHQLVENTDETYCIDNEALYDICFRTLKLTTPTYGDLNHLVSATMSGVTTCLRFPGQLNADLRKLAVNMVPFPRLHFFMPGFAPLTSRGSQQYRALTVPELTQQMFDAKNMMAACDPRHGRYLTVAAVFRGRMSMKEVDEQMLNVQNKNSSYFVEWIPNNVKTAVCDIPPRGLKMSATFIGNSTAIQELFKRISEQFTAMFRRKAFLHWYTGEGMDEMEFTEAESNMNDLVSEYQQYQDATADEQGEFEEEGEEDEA
For data set [7], the system named is HeLa. Description: Induction of cell cycle arrest in human HeLa cells assessed as 2N cells at 0.1 uM measured after 24 hrs by propidium iodide staining based flow cytometric analysis analysis ( Rvb = 47.4%). It counts as functional.
The test system of data set [8] is HeLa. Briefly: Induction of cell cycle arrest in human HeLa cells assessed as accumulation of cells at G2/M phase at 0.4 uM after 24 hrs by propidium iodide staining based flow cytometric analysis (reference value: 20.3%). It counts as functional.
The test system of data set [9] is HeLa. Briefly: Induction of apoptosis in human HeLa cells assessed as early apoptotic cells at 0.4 uM measured after 24 hrs by Annexin V-FITC/7-AAD staining based flow cytometric analysis (reference value: 20.8%). It counts as functional.
The subject of data set [10] is HeLa. Briefly: Induction of apoptosis in human HeLa cells assessed as late apoptotic cells at 0.1 uM measured after 24 hrs by Annexin V-FITC/7-AAD staining based flow cytometric analysis (reference value: 8.51%). It counts as functional.
In data set [11] the test system is HeLa. Briefly: Induction of apoptosis in human HeLa cells assessed as necrotic cells at 0.1 uM measured after 24 hrs by Annexin V-FITC/7-AAD staining based flow cytometric analysis (reference value: 0.56%). It counts as functional.
Data set [12] can be described thus: Half life in C57 nude mouse at 30 mg/kg, ip measured at 0.083 to 24 hrs by LC/MS/MS analysis. It counts as ADME, organism-based. The note with it: in vivo, time 0.083-24 hrs.
For data set [13], the system named is HeLa. Description: Antitumor activity against human HeLa cells xenografted in BABL/c mouse assessed assessed as reduction in tumor volume at 30 mg/kg, ip administered daily for 21 days and measured every 3 days ( Rvb = 2336 mm3). It counts as functional. The note with it: time 21 day.
Data set [14] in a line: Nephrotoxicity in BABL/c mouse assessed as increased urea nitrogen level at 30 mg/kg, ip administered daily for 21 days relative to vehicle. The class given is toxicity, organism-based. To be noted: in vivo, 504 h, time 21 day.
Data set [15] is described as follows: Toxicity against BABL/c mouse assessed as morphological changes in heart at 30 to 60 mg/kg, ip administered daily for 21 days by H and E staining method. It counts as organism-based. The note with it: in vivo, 504 h, dose 30-60 mg/kg, time 21 day.
The nature of data set [16]: Toxicity against BABL/c mouse assessed as morphological changes in kidney at 30 to 60 mg/kg, ip administered daily for 21 days by H and E staining method. The class given is organism-based. The note with it: in vivo, 504 h, dose 30-60 mg/kg, time 21 day.
Data set [17] deals with HeLa. Description: Potency index, ratio of cisplatin IC50 to test compound IC50 for cytotoxicity against human DDP resistant HeLa cells. It counts as functional.
The subject of data set [18] is SiHa. Briefly: Potency index, ratio of cisplatin IC50 to test compound IC50 for cytotoxicity against human DDP resistant SiHa cells. The class given is functional.
In data set [19] the target is Tubulin beta (Homo sapiens) (UniProt P68371+Q9H4B7+Q13509+P04350+Q3ZCM7+P07437+Q13885+Q9BVA1+Q9BUF5+A6NNZ2). Description: Binding affinity to beta-tubulin colchicine binding site in human HeLa cells assessed as decrease of adduct formation by measuring gray value measured at 5 uM incubated for 2 hrs followed by addition of EBI measured after 1.5 hrs by EBI competition based Western blotting analysis. The class given is cell-based. To be noted: time 3.5 hrs.

The nature of data set [20]: Retention time of the compound. The class given is physicochemical.

Take `COc1ccc(/C=C\c2cc(OC)c(OC)c(OC)c2)cc1O` [COMBRETASTATIN A4]: the Activity in data set [1] stood at 24.9%; in data set [2], 22.5%; in data set [4], 6.68%; in [5], 25%. In addition, in data set [3], the viability at 0.0015 µM is 68.9%.
For the compound `CCOc1ccc(-c2cncnc2-c2cc(OC)c(OC)c(OC)c2)cc1Cl`, the Activity is 39% in [6]; 22.7% in [7]; 71.7% in data set [8]; 84.4% in data set [9]; 7.29% in data set [10]; 0.5% in data set [11]. Moreover, the Activity in data set [13] was 1578 mm3; in [14], 1.3%; in data set [15], “Non-Toxic”; in data set [16] it was “Non-Toxic”; in data set [19], 0.59. Moreover, the half-life in [12] is 1.56 h. Further, the “Ratio IC50” value in data set [17] and in data set [18] was 2.7 throughout. This compound also showed a Retention_time in [20] of 2.06 min.
